For one assay, the system named is HCC827. Kind of assay: Anticancer activity (cytotoxicity) in NSCLC cell line. In kind it is cell-based. The following applies: Homo sapiens, HCC827, EGFR ΔE746-A750 (sensitizing).
Another assay deals with T1, DDR2 (Homo sapiens, UniProt Q16832).
T1 sequence (Q16832 22-855): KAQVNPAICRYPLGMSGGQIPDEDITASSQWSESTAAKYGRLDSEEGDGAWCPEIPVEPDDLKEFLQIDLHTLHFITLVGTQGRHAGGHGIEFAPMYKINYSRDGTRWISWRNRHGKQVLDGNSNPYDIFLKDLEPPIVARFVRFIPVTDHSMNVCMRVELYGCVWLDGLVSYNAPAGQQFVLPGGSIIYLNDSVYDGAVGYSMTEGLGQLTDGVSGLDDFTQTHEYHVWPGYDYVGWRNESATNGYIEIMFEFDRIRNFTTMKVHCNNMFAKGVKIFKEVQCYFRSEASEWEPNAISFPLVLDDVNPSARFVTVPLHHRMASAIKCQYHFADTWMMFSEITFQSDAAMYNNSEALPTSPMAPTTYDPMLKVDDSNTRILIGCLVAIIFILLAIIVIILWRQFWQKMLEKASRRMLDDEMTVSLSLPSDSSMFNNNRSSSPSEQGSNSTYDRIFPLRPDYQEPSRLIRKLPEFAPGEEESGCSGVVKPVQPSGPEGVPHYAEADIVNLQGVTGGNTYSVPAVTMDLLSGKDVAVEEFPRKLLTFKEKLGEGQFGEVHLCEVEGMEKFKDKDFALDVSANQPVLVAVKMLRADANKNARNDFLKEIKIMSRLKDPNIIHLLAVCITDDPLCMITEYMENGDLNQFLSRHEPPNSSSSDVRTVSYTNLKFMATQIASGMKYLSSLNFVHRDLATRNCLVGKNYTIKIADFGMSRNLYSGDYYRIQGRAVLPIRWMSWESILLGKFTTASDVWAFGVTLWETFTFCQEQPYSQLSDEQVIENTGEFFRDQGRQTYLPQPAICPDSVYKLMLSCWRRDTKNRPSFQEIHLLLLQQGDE
Kind of assay: biochemical. The following applies: read-out: Percent control.

In a further assay the target is T2, FLT3(D835Y) (Homo sapiens, UniProt P36888, D835Y).
T2 sequence (P36888 27-993 D835Y): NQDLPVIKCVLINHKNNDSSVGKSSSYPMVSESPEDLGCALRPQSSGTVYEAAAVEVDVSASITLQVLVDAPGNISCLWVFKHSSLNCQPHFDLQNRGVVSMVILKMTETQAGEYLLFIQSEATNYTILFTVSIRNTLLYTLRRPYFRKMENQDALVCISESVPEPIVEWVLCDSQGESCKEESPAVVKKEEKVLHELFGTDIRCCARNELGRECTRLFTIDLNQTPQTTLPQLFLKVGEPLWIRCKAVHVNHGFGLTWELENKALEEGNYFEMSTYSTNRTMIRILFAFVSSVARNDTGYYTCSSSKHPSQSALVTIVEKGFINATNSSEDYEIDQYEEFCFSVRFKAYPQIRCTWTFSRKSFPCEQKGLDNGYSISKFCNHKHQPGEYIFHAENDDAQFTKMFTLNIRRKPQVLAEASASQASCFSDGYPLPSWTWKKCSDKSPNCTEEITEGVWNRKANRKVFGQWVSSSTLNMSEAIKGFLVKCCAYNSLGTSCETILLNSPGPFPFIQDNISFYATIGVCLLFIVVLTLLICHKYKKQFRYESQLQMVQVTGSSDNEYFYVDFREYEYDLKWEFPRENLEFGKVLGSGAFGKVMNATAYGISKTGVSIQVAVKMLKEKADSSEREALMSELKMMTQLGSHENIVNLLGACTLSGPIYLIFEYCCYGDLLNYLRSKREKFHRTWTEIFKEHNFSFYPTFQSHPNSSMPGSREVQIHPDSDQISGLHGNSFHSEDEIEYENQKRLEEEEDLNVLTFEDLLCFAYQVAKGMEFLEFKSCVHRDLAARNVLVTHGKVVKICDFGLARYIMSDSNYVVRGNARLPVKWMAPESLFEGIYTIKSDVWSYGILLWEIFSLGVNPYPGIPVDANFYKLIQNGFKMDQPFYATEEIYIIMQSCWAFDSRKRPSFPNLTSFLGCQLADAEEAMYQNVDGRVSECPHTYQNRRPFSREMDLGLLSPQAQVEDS
Description: biochemical. The note with it: read-out: Percent control.

The target in a further assay is EGFR(L858R) (Homo sapiens, UniProt P00533, L858R). The note with it: 10 μM.
EGFR(L858R), sequence (P00533 25-1210 L858R): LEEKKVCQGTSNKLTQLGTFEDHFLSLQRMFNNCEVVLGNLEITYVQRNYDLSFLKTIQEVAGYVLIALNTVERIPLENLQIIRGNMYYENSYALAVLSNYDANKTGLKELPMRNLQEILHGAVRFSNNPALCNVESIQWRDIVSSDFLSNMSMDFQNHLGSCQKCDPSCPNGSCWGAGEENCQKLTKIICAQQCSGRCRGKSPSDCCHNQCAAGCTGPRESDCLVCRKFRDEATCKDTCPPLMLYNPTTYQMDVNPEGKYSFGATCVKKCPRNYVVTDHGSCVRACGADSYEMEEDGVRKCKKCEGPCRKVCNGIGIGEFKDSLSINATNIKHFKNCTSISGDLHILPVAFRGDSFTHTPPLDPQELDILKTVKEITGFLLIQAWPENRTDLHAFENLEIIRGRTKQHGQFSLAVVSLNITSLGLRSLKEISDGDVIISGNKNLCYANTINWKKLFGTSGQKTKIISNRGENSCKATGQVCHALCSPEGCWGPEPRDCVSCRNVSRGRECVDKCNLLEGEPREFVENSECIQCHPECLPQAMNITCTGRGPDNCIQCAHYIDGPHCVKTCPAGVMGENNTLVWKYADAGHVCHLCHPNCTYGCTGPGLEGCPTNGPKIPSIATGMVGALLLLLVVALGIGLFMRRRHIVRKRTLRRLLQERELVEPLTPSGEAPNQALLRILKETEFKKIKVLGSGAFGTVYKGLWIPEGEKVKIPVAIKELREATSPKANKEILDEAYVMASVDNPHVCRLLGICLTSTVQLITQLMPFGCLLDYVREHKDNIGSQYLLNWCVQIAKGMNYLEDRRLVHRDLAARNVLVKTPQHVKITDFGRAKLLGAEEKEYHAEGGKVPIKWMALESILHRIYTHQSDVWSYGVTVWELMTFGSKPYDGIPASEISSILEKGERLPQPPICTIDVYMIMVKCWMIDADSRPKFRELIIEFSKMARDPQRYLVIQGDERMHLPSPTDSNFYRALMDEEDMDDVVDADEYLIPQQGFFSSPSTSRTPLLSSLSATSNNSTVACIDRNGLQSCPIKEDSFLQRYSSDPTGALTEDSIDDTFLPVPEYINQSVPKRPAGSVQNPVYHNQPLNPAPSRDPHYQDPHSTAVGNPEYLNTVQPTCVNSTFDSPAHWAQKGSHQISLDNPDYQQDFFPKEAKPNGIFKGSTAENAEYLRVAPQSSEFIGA
A further assay concerns the target FGFR3 (Homo sapiens, UniProt P22607). Kind of assay: biochemical. The note with it: read-out: Percent control.
In the next assay the target is RET(M918T) (Homo sapiens, UniProt P07949, M918T). Kind of assay: biochemical. The note with it: read-out: Percent control.
RET(M918T), sequence (P07949 29-1114 M918T): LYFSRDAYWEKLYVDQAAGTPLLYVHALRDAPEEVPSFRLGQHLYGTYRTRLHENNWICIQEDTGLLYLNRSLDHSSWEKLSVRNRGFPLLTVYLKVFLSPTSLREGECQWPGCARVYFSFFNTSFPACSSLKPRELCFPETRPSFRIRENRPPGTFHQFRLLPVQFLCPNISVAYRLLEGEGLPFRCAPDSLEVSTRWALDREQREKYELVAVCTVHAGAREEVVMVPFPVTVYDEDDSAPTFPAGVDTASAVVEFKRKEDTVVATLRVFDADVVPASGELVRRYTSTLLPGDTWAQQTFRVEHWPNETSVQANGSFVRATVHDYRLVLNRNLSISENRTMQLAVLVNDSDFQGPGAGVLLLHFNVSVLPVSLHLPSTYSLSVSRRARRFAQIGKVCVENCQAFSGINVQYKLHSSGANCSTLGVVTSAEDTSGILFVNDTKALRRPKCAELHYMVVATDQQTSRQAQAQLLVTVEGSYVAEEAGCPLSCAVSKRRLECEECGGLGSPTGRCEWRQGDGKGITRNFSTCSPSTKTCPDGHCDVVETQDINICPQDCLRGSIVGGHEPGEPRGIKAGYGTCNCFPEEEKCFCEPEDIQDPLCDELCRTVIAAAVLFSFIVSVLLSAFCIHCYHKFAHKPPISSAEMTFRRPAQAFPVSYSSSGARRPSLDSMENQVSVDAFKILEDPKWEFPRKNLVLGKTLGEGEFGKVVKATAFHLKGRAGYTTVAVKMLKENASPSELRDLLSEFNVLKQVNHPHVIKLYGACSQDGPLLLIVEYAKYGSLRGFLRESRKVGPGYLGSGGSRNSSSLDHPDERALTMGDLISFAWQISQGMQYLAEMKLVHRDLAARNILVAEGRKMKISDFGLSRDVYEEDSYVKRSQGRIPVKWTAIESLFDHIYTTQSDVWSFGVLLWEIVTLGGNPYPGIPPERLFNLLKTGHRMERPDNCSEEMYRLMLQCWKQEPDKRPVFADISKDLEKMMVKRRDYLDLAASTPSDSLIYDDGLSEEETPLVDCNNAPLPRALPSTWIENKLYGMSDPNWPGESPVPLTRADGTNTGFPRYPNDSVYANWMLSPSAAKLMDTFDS
For assay [1], the target named is ABL1(F317L)-phosphorylated (Homo sapiens, UniProt P00519, F317L). The note with it: 10 μM.
Assay [2] addresses ABL1(M351T)-phosphorylated (Homo sapiens, UniProt P00519, M351T). The following applies: 10 μM.
Assay [3] addresses ABL1(Q252H)-nonphosphorylated (Homo sapiens, UniProt P00519, Q252H). The following applies: 10 μM.
Assay [4] has as its target ABL1(Q252H)-phosphorylated (Homo sapiens, UniProt P00519, Q252H). The following applies: 10 μM.
Assay [5] deals with ABL1(T315I)-phosphorylated (Homo sapiens, UniProt P00519, T315I). The note with it: 10 μM.
A further assay concerns the target ABL1-phosphorylated (Homo sapiens, UniProt P00519). The following applies: 10 μM.
The target in the next assay is CSF1R (Homo sapiens, UniProt P07333). The following applies: 10 μM.
CSF1R, sequence (P07333 20-972): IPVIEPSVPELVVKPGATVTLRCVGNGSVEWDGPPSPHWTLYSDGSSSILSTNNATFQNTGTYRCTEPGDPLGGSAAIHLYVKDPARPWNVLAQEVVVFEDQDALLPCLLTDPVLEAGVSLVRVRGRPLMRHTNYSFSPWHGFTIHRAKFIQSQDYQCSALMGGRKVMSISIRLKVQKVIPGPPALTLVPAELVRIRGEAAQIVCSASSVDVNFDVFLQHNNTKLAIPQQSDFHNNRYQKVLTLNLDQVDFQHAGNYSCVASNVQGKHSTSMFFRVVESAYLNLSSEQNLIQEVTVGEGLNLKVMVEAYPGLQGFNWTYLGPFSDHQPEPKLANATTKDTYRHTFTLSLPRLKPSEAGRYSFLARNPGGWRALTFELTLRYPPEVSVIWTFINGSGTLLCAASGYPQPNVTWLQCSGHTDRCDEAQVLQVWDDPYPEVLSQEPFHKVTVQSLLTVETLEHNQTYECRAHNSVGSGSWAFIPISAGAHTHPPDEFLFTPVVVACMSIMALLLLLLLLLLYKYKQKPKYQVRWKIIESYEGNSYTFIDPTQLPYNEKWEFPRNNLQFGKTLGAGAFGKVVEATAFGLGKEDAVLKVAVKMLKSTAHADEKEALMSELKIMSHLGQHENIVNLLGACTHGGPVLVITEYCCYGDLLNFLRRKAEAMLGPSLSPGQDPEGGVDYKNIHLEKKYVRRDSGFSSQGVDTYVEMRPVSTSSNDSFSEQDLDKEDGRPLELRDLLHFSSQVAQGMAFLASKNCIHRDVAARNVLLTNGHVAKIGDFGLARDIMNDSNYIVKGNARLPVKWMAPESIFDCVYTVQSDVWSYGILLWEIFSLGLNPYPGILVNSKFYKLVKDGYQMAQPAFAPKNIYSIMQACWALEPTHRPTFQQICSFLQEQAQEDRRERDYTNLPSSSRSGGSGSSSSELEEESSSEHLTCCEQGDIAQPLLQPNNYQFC

FGFR3, sequence (P22607 23-806): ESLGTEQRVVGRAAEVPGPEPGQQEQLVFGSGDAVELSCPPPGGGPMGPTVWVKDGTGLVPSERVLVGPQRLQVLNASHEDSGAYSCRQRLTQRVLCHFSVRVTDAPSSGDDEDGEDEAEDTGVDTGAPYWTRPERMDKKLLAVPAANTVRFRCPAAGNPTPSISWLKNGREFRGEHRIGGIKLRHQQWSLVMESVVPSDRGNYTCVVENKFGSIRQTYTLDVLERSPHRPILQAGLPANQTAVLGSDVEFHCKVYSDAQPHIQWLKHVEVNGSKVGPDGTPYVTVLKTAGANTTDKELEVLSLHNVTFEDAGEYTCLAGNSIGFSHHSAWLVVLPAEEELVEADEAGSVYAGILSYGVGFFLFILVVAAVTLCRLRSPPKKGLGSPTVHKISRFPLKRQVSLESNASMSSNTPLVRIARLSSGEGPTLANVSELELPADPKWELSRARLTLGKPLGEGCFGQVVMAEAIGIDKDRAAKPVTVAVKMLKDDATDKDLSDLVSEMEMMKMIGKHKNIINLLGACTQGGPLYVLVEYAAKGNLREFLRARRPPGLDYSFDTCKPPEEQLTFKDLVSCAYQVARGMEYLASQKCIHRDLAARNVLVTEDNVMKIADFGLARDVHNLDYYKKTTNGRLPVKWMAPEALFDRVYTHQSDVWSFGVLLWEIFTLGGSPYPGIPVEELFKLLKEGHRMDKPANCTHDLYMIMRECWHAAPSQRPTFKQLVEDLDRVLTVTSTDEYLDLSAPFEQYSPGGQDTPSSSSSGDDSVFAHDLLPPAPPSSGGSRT

A word on the IC50: it is the concentration at which inhibition is half-maximal. As to `COc1cc2c(Nc3ccc(Br)cc3F)ncnc2cc1OCC1CCN(C)CC1` [Vandetanib, reference compound], the 50% inhibitory concentration (IC50) in the assay with HCC827 was determined as 11 ± 2 nM. The remaining activity at 10 µM is 3.1% on DDR2 and 7.7% at FLT3(D835Y).
At EGFR(L858R), `Cc1ccc(NC(=O)c2ccc(CN3CCN(C)CC3)cc2)cc1Nc1nccc(-c2cccnc2)[n+]1[Pt-2]1([Cl])[NH2+]C2CCCCC2[NH2+]1` (stereo not shown) [1b, oxaliplatin-imatinib] had a Percent control of 81%.
As to `C#Cc1cccc(Nc2ncnc3cc(OCCOC)c(OCCOC)cc23)c1` [Erlotinib], the remaining activity at 10 µM at FGFR3 is 100%; at RET(M918T), 3.2%.
Regarding `C#Cc1cccc(Nc2c3cc(OCCOC)c(OCCOC)cc3nc[n+]2[Pt@SP2-2]([NH3+])([NH3+])[Cl])c1` [2a, cisplatin-erlotinib], the Percent control in [1] turned out to be 25%; in [2] it was 15%; in assay [3], 13%; in assay [4], 12%; in assay [5], 30%; at ABL1-phosphorylated, 16%. In addition, at CSF1R, the Percent control is listed as 91%.
